Species: Rattus norvegicus
Assay: DrugMatrix - Regimen: Daily Repeat
Type: toxicity, organism-based, Sprague-Dawley
Parameters: regimen Daily Repeat, gender Male, age 6-8 weeks
Details: in vivo, po, route oral GAVAGE, vehicle 100 % WATER; for ABSOLUTE BASOPHIL / ABSOLUTE EOSINOPHIL / ABSOLUTE LYMPHOCYTE / ABSOLUTE MONOCYTE / ABSOLUTE SEGMENTED NEUTROPHIL / BASOPHIL / EOSINOPHIL / ERYTHROCYTE COUNT / HEMATOCRIT / HEMOGLOBIN / LEUKOCYTE COUNT / LYMPHOCYTE / MEAN CORPUSCULAR HEMOGLOBIN / MEAN CORPUSCULAR HEMOGLOBIN CONCENTRATION / MEAN CORPUSCULAR VOLUME / MONOCYTE / NEUTROPHIL / NUCLEATED RED BLOOD CELLS / PLATELET COUNT: tissue Blood; for ALANINE AMINOTRANSFERASE / ALBUMIN / ALKALINE PHOSPHATASE / ASPARTATE AMINOTRANSFERASE / BLOOD UREA NITROGEN / CARBON DIOXIDE / CHLORIDE / CHOLESTEROL / CREATINE PHOSPHOKINASE / CREATININE / GLUCOSE / LACTATE DEHYDROGENASE / LIPASE / PHOSPHORUS / POTASSIUM / SODIUM / TOTAL BILIRUBIN / TOTAL PROTEIN / URIC ACID: tissue Plasma
[1] = 58 mg/kg, 120 h, dose level Low, time 5 day
[2] = 220 mg/kg, 72 h, dose level High, time 3 day
[3] = 220 mg/kg, 120 h, dose level High, time 5 day

NC12CC3CC(CC(C3)C1)C2 [AMANTADINE]
ABSOLUTE BASOPHIL [1]: 0 CELLS/uL | ABSOLUTE EOSINOPHIL [1]: 0 CELLS/uL | ABSOLUTE LYMPHOCYTE [1]: 10747.67 CELLS/uL | ABSOLUTE MONOCYTE [1]: 83.67 CELLS/uL | ABSOLUTE SEGMENTED NEUTROPHIL [1]: 1002 CELLS/uL | BASOPHIL [1]: 0% | EOSINOPHIL [1]: 0% | ERYTHROCYTE COUNT [1]: 6.06 x10E6/uL | HEMATOCRIT [1]: 37.8% | HEMOGLOBIN [1]: 14.9 G/DL | LEUKOCYTE COUNT [1]: 11.83 x10E3/uL | LYMPHOCYTE [1]: 89% | MEAN CORPUSCULAR HEMOGLOBIN [1]: 24.63 pg | MEAN CORPUSCULAR HEMOGLOBIN CONCENTRATION [1]: 39.43 G/DL | MEAN CORPUSCULAR VOLUME [1]: 62.5 fL | MONOCYTE [1]: 1% | NEUTROPHIL [1]: 10% | NUCLEATED RED BLOOD CELLS [1]: 0 /100WBC | PLATELET COUNT [1]: 1200.33 x10E3/uL | ALANINE AMINOTRANSFERASE [1]: 44 u/L | ALBUMIN [1]: 4.27 G/DL | ALKALINE PHOSPHATASE [1]: 432.67 u/L | ASPARTATE AMINOTRANSFERASE [1]: 73.33 u/L | BLOOD UREA NITROGEN [1]: 16 mg/dL | CARBON DIOXIDE [1]: 31 mmol/L | CHLORIDE [1]: 100.33 MEQ/L | CHOLESTEROL [1]: 73.33 mg/dL | CREATINE PHOSPHOKINASE [1]: 431.33 u/L | CREATININE [1]: 0.18 mg/dL | GLUCOSE [1]: 147 mg/dL | LACTATE DEHYDROGENASE [1]: 336 u/L | LIPASE [1]: 11.33 u/L | PHOSPHORUS [1]: 12.13 mg/dL | POTASSIUM [1]: 6.25 MEQ/L | SODIUM [1]: 142.77 MEQ/L | TOTAL BILIRUBIN [1]: 0.23 mg/dL | TOTAL PROTEIN [1]: 6.27 G/DL | URIC ACID [1]: 1.43 mg/dL | ABSOLUTE BASOPHIL [2]: 0 CELLS/uL | ABSOLUTE EOSINOPHIL [2]: 0 CELLS/uL | ABSOLUTE LYMPHOCYTE [2]: 17634 CELLS/uL | ABSOLUTE MONOCYTE [2]: 192.33 CELLS/uL | ABSOLUTE SEGMENTED NEUTROPHIL [2]: 940.33 CELLS/uL | BASOPHIL [2]: 0% | EOSINOPHIL [2]: 0% | ERYTHROCYTE COUNT [2]: 5.62 x10E6/uL | HEMATOCRIT [2]: 36.3% | HEMOGLOBIN [2]: 14.43 G/DL | LEUKOCYTE COUNT [2]: 18.77 x10E3/uL | LYMPHOCYTE [2]: 94% | MEAN CORPUSCULAR HEMOGLOBIN [2]: 25.7 pg | MEAN CORPUSCULAR HEMOGLOBIN CONCENTRATION [2]: 39.77 G/DL | MEAN CORPUSCULAR VOLUME [2]: 64.63 fL | MONOCYTE [2]: 1% | NEUTROPHIL [2]: 5% | NUCLEATED RED BLOOD CELLS [2]: 0 /100WBC | PLATELET COUNT [2]: 1304.33 x10E3/uL | ALANINE AMINOTRANSFERASE [2]: 42.33 u/L | ALBUMIN [2]: 4.23 G/DL | ALKALINE PHOSPHATASE [2]: 440 u/L | ASPARTATE AMINOTRANSFERASE [2]: 69 u/L | BLOOD UREA NITROGEN [2]: 13.67 mg/dL | CARBON DIOXIDE [2]: 32 mmol/L | CHLORIDE [2]: 101 MEQ/L | CHOLESTEROL [2]: 61 mg/dL | CREATINE PHOSPHOKINASE [2]: 227.67 u/L | CREATININE [2]: 0.16 mg/dL | GLUCOSE [2]: 149 mg/dL | LACTATE DEHYDROGENASE [2]: 138.67 u/L | LIPASE [2]: 10.67 u/L | PHOSPHORUS [2]: 11.67 mg/dL | POTASSIUM [2]: 6.52 MEQ/L | SODIUM [2]: 143.17 MEQ/L | TOTAL BILIRUBIN [2]: 0.17 mg/dL | TOTAL PROTEIN [2]: 5.93 G/DL | URIC ACID [2]: 1.7 mg/dL | ABSOLUTE BASOPHIL [3]: 0 CELLS/uL | ABSOLUTE EOSINOPHIL [3]: 49 CELLS/uL | ABSOLUTE LYMPHOCYTE [3]: 15618.33 CELLS/uL | ABSOLUTE MONOCYTE [3]: 94.33 CELLS/uL | ABSOLUTE SEGMENTED NEUTROPHIL [3]: 971.67 CELLS/uL | BASOPHIL [3]: 0% | EOSINOPHIL [3]: 0.33% | ERYTHROCYTE COUNT [3]: 5.95 x10E6/uL | HEMATOCRIT [3]: 37.33% | HEMOGLOBIN [3]: 14.67 G/DL | LEUKOCYTE COUNT [3]: 16.73 x10E3/uL | LYMPHOCYTE [3]: 93.33% | MEAN CORPUSCULAR HEMOGLOBIN [3]: 24.73 pg | MEAN CORPUSCULAR HEMOGLOBIN CONCENTRATION [3]: 39.3 G/DL | MEAN CORPUSCULAR VOLUME [3]: 62.9 fL | MONOCYTE [3]: 0.67% | NEUTROPHIL [3]: 5.67% | NUCLEATED RED BLOOD CELLS [3]: 0 /100WBC | PLATELET COUNT [3]: 1216.33 x10E3/uL | ALANINE AMINOTRANSFERASE [3]: 55.33 u/L | ALBUMIN [3]: 4.13 G/DL | ALKALINE PHOSPHATASE [3]: 501 u/L | ASPARTATE AMINOTRANSFERASE [3]: 86.67 u/L | BLOOD UREA NITROGEN [3]: 14 mg/dL | CARBON DIOXIDE [3]: 31 mmol/L | CHLORIDE [3]: 100.67 MEQ/L | CHOLESTEROL [3]: 67.33 mg/dL | CREATINE PHOSPHOKINASE [3]: 446.67 u/L | CREATININE [3]: 0.17 mg/dL | GLUCOSE [3]: 165.67 mg/dL | LACTATE DEHYDROGENASE [3]: 167.33 u/L | LIPASE [3]: 11 u/L | PHOSPHORUS [3]: 11.4 mg/dL | POTASSIUM [3]: 6.52 MEQ/L | SODIUM [3]: 143.23 MEQ/L | TOTAL BILIRUBIN [3]: 0.23 mg/dL | TOTAL PROTEIN [3]: 6.3 G/DL | URIC ACID [3]: 1.77 mg/dL
